In PMC7904915, “Discovery of exolytic heparinases and their catalytic mechanism and potential application” (Nature Communications, 2021):

Key:
Assay type in all cases: biochemical
BIexoHep = molecular target: T1, BIexoHep (Bacteroides intestinalis, UniProt B3C5J6); assay: tetrasaccharide digestion, 2-AB labelling, anion-exchange HPLC; conditions: exolytic beta-elimination; 5 pmol substrate
T1 construct: gene BACINT_00178; pET-30a(+), His-purified from E. coli BL21(DE3); crystal residues 24-864, monomer, two Ca2+
T1 sequence (B3C5J6 24-868): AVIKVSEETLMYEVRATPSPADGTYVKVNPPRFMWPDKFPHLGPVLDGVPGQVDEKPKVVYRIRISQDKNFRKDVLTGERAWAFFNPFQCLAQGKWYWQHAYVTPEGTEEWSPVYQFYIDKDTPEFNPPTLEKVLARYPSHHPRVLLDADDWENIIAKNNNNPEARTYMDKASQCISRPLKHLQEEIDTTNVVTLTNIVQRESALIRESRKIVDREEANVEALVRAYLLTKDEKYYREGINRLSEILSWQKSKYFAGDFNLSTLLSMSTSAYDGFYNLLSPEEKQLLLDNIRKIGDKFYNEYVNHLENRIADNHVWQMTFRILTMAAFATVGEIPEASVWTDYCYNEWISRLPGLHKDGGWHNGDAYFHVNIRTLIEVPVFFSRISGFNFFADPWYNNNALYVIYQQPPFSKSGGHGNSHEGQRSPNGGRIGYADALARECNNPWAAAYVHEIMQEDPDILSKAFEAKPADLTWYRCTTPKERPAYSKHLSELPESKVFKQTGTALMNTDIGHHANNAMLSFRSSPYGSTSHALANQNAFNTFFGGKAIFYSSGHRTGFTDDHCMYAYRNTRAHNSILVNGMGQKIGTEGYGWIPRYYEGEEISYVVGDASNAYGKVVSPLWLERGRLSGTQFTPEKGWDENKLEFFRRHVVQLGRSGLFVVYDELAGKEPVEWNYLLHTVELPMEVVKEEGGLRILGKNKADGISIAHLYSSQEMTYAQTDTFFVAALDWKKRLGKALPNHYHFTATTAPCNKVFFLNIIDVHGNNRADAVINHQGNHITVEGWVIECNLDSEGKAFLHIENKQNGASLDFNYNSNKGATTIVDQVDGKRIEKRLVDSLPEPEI

BTexoHep = molecular target: T2, BTexoHep (Bacteroides thetaiotaomicron, UniProt Q89YS9); assay: digestion, anion-exchange HPLC at […] nm; conditions: 5 μg fondaparinux; cleaved to ΔUA2S(1-4)GlcNS6S(OCH3) only
T2 construct: gene BT_4652; synthetic gene, expressed in E. coli BL21(DE3) and purified as BIexoHep
T2 sequence (Q89YS9 22-872): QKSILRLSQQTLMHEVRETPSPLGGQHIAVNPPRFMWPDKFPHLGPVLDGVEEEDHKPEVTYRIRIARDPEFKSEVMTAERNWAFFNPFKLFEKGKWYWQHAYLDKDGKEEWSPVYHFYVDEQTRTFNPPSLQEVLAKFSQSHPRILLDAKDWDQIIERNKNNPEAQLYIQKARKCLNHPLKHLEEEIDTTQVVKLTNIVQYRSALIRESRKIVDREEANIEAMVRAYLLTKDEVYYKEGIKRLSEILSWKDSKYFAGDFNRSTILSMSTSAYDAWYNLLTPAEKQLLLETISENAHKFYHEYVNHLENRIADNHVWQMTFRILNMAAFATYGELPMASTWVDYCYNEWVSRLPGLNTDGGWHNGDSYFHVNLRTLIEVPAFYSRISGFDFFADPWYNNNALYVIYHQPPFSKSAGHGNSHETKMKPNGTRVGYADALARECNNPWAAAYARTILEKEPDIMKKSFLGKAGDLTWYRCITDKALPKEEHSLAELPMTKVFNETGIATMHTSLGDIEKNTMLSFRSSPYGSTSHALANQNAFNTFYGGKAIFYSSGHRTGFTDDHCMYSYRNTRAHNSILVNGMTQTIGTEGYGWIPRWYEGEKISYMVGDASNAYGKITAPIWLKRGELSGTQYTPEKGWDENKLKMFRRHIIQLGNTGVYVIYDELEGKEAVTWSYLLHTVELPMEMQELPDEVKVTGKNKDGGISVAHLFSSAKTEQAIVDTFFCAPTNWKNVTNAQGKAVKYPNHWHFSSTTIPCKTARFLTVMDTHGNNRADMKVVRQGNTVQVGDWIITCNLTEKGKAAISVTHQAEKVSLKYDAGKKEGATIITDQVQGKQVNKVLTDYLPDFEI

BFexoHep = molecular target: T3, BFexoHep (Bacteroides finegoldii, UniProt C9L025); assay: digestion, anion-exchange HPLC at […] nm; conditions: […] μg fondaparinux; cleaved to ΔUA2S([…]-4)GlcNS6S(OCH3) only
T3 construct: synthetic gene, expressed in E. coli BL21(DE3) and purified as BIexoHep
T3 sequence (C9L025 24-874): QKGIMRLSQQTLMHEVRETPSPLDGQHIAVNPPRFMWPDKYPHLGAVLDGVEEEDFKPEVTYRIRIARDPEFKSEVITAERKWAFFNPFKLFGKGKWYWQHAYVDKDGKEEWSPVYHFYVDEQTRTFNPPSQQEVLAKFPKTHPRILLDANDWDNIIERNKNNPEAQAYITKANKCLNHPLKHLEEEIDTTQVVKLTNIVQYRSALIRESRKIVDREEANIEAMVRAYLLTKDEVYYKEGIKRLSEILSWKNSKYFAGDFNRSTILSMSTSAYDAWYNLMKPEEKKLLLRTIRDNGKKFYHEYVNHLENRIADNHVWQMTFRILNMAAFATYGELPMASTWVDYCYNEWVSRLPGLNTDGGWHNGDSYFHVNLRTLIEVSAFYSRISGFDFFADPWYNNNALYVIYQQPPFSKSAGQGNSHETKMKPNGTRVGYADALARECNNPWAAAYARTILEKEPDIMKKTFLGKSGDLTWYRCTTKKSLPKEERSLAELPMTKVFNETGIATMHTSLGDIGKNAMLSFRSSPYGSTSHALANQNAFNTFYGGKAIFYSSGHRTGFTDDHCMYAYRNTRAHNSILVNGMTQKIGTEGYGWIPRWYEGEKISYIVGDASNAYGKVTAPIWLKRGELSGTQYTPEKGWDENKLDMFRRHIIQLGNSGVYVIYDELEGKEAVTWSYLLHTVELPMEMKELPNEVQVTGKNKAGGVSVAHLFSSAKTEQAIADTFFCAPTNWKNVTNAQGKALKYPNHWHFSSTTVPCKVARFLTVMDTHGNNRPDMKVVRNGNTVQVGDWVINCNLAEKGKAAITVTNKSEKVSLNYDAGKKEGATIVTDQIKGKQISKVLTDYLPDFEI

BCexoHep = molecular target: T4, BCexoHep (Bacteroides cellulosilyticus, UniProt A0A0P0GDH6); assay: digestion, anion-exchange HPLC at […] nm; conditions: 5 μg fondaparinux; cleaved to ΔUA2S(1-4)GlcNS6S(OCH3) only
T4 construct: gene hepB; synthetic gene, expressed in E. coli BL21(DE3) and purified as BIexoHep
T4 sequence (A0A0P0GDH6 18-868): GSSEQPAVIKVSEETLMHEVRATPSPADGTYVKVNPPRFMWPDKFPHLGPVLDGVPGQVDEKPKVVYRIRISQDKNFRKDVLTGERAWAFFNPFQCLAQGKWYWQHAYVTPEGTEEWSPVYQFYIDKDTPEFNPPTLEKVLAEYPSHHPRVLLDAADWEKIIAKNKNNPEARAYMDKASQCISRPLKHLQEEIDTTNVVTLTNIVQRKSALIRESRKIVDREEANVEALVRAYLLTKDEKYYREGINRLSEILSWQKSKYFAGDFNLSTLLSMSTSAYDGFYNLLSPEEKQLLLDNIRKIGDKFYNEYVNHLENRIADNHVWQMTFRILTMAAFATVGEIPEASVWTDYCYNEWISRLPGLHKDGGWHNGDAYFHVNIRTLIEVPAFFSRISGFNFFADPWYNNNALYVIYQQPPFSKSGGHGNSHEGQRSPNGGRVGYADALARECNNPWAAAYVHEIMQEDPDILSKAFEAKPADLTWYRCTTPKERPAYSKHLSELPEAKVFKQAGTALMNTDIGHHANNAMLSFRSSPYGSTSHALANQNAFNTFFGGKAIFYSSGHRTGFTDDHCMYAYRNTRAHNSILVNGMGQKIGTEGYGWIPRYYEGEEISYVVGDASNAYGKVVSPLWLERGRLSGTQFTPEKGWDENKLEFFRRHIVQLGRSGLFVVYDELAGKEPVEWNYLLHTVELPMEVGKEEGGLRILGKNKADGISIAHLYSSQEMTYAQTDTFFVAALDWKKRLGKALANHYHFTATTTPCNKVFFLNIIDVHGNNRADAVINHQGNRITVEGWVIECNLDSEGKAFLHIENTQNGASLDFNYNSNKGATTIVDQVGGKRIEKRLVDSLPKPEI

Structure (SMILES) | tetrasaccharide digestion, 2-AB labelling, anion-exchange HPLC (BIexoHep) | digestion, anion-exchange HPLC at 232 nm (BTexoHep) | digestion, anion-exchange HPLC at 232 nm (BFexoHep) | digestion, anion-exchange HPLC at 232 nm (BCexoHep)
O=C(O)C1=C[C@H](O)[C@@H](OS(=O)(=O)O)[C@H](O[C@H]2[C@H](O)[C@@H](NS(=O)(=O)O)[C@@H](O[C@H]3[C@H](O)[C@@H](OS(=O)(=O)O)[C@H](O[C@H]4[C@H](O)[C@@H](NS(=O)(=O)O)C(O)O[C@@H]4COS(=O)(=O)O)O[C@H]3C(=O)O)O[C@@H]2COS(=O)(=O)O)O1 (some centres unmarked) [P4-8, ΔUA2S1-4GlcNS6S1-4IdoA2S1-4GlcNS6S] | this enzyme prefers to digest highly sulfated substrates | – | – | –
O=C(O)C1=C[C@H](O)[C@@H](OS(=O)(=O)O)[C@H](O[C@H]2[C@H](O)[C@@H](NS(=O)(=O)O)[C@@H](O[C@H]3[C@H](O)[C@@H](O)[C@H](O[C@H]4[C@H](O)[C@@H](NS(=O)(=O)O)C(O)O[C@@H]4COS(=O)(=O)O)O[C@@H]3C(=O)O)O[C@@H]2COS(=O)(=O)O)O1 (some centres unmarked) [P4-7, ΔUA2S1-4GlcNS6S1-4GlcA1-4GlcNS6S] | all could be almost completely degraded | – | – | –
CO[C@H]1O[C@H](COS(=O)(=O)O)[C@@H](O[C@@H]2O[C@@H](C(=O)O)[C@@H](O[C@H]3O[C@H](COS(=O)(=O)O)[C@@H](O[C@@H]4O[C@H](C(=O)O)[C@@H](O[C@H]5O[C@H](COS(=O)(=O)O)[C@@H](O)[C@H](O)[C@H]5NS(=O)(=O)O)[C@H](O)[C@H]4O)[C@H](OS(=O)(=O)O)[C@H]3NS(=O)(=O)O)[C@H](O)[C@H]2OS(=O)(=O)O)[C@H](O)[C@H]1NS(=O)(=O)O [fondaparinux] | – | all these exoHepases can degrade the fondaparinux | all these exoHepases can degrade the fondaparinux | all these exoHepases can degrade the fondaparinux
